test system: HCV pseudoparticles (genotype 1a HCV E1 and E2 envelope, H77C isolate); assay: microbe, parasite or virus in culture; format: cell-based; settings: Hepatitis C virus, Huh-7, 48 h, HCV pseudoparticle infection of Huh7 cells, luciferase 2 days after infection; average of duplicates

Structure (SMILES)	EC50 [nM]
O=C(NCC[C@H](NC(=O)c1ccc(Nc2nc(NC3(c4ccc(Cl)cc4)CC3)nc(OCC(F)(F)F)n2)cc1)C(=O)O)C(=O)NCC1CCCOC1 (stereo partly shown) [Compound 1208]	0.21
CC(C)(CNC(=O)C(=O)Nc1cccc(CCC(=O)O)c1)CNC(=O)c1ccc(Nc2nc(NC3(c4ccc(Cl)cc4)CC3)nc(OCC(F)(F)F)n2)cc1 [Compound 1482]	0.17
COc1cccc(CCNC(=O)C(=O)NC[C@H](NC(=O)c2ccc(Nc3nc(NC4(c5ccc(Cl)cc5)CC4)nc(OCC(F)(F)F)n3)cc2)C(=O)O)c1 [Compound 1398]	2.19
O=C(NCC[C@H](NC(=O)c1ccc(Nc2nc(NC3(c4ccc(Cl)cc4)CC3)nc(OCC(F)(F)F)n2)cc1)C(=O)O)C(=O)Nc1ccccn1 [Compound 1279]	1.29
CCOC(=O)[C@H](CCNC(=O)C(=O)N(C)C)NC(=O)c1ccc(Nc2nc(NC3(c4ccc(Cl)cc4)CC3)nc(OCC(F)(F)F)n2)cc1 [Compound 1026, (S)-ethyl 2-(4-(4-(1-(4-chlorophenyl)cyclopropylamino)-6-(2,2,2-trifluoroethoxy)-1,3,5-triazin-2-ylamino)benzamido)-4-(2-(dimethylamino)-2-oxoacetamido)butanoate]	2.68
COC(=O)[C@H](CNC(=O)C(=O)NCc1ccc(F)cc1)NC(=O)c1ccc(Nc2nc(NC3(c4ccc(Cl)cc4)CC3)nc(OCC(F)(F)F)n2)cc1 [Compound 1133]	1.4

same assay, conditions: Hepatitis C virus, Huh-7, 48 h, HCV pseudoparticles (genotype 1a, H77C) in Huh7 cells; average of duplicate; luciferase 2 days after infection

Structure (SMILES)	EC50 [nM]
Cn1ccc(NC(=O)C(=O)NCC(C)(C)CNC(=O)c2ccc(Nc3nc(NC4(c5ccc(Cl)cc5)CC4)nc(OCC(F)(F)F)n3)cc2F)n1 [Compound 3567]	0.035

same assay, conditions: Hepatitis C virus, Huh-7, 48 h, HCV pseudoparticles, Huh7 cells, luciferase 2 days after infection; average of duplicates

Structure (SMILES)	EC50 [nM]
CC(C)(CNC(=O)C(=O)Nc1nc2ccc(Cl)cc2s1)CNC(=O)c1ccc(Nc2nc(NC3(c4ccc(Cl)cc4)CC3)nc(OCC(F)(F)F)n2)cc1 [Compound 3807]	0.28

same assay, conditions: Hepatitis C virus, Huh-7, 48 h, read-out: Activity (EC50 class), HCV pseudoparticle infection of Huh7 cells, luciferase 2 days after infection; EC50 expressed as class A/B

Structure (SMILES)	EC50 [nM]
O=C(NCC[C@H](NC(=O)c1ccc(Nc2nc(NC3(c4ccc(Cl)cc4)CC3)nc(OCC(F)(F)F)n2)cc1)C(=O)O)C(=O)NCC1CCCOC1 (stereo partly shown) [Compound 1208]	0.01 to 10
Cn1cc(NC(=O)C(=O)NC[C@H](NC(=O)c2ccc(Nc3nc(NC4(c5ccc(Cl)cc5)CC4)nc(OCC(F)(F)F)n3)cc2)C(=O)O)cn1 [Compound 1356]	0.01 to 10
CC(C)(CNC(=O)C(=O)Nc1cccc(CCC(=O)O)c1)CNC(=O)c1ccc(Nc2nc(NC3(c4ccc(Cl)cc4)CC3)nc(OCC(F)(F)F)n2)cc1 [Compound 1482]	0.01 to 10
COc1cccc(CCNC(=O)C(=O)NC[C@H](NC(=O)c2ccc(Nc3nc(NC4(c5ccc(Cl)cc5)CC4)nc(OCC(F)(F)F)n3)cc2)C(=O)O)c1 [Compound 1398]	0.01 to 10
COC(=O)[C@@H](CCNC(=O)C(=O)NCC1(NC(=O)OC(C)(C)C)CC1)NC(=O)c1ccc(Nc2nc(NC3(c4ccc(Cl)cc4)CC3)nc(OCC(F)(F)F)n2)cc1 [Compound 1381]	0.01 to 10
O=C(NCC[C@H](NC(=O)c1ccc(Nc2nc(NC3(c4ccc(Cl)cc4)CC3)nc(OCC(F)(F)F)n2)cc1)C(=O)O)C(=O)NCC1(Cn2ccnc2)CC1 [Compound 1429]	0.01 to 10
COC(=O)[C@H](CNC(=O)C(=O)NCCc1cnn(C)c1)NC(=O)c1ccc(Nc2nc(NC3(c4ccc(Cl)cc4)CC3)nc(OCC(F)(F)F)n2)cc1 [Compound 1302]	0.01 to 10
O=C(NCC[C@H](NC(=O)c1ccc(Nc2nc(NC3(c4ccc(Cl)cc4)CC3)nc(OCC(F)(F)F)n2)cc1)C(=O)O)C(=O)N[C@H]1C[C@H]1c1ccccc1 [Compound 1338]	0.01 to 10
COC(=O)[C@H](CCNC(=O)C(=O)NC1CCC(C)CC1)NC(=O)c1ccc(Nc2nc(NC3(c4ccc(Cl)cc4)CC3)nc(OCC(F)(F)F)n2)cc1 (stereo partly shown) [Compound 1109]	0.01 to 10
O=C(NCC[C@H](NC(=O)c1ccc(Nc2nc(NC3(c4ccc(Cl)cc4)CC3)nc(OCC(F)(F)F)n2)cc1)C(=O)O)C(=O)NCC1CC1c1ccc(F)cc1 (stereo partly shown) [Compound 1438]	0.01 to 10
CNC(=O)C(=O)NCC(C)(C)CNC(=O)c1ccc(Nc2nc(NC3(c4ccc(Cl)cc4)CC3)nc(OCC(F)(F)F)n2)cc1 [Compound 1553]	0.01 to 10
O=C(NCC[C@H](NC(=O)c1ccc(Nc2nc(NC3(c4ccc(Cl)cc4)CC3)nc(OCC(F)(F)F)n2)cc1)C(=O)O)C(=O)Nc1cn[nH]c1 [Compound 1266]	0.01 to 10
CC(C)c1ccc(NC(=O)C(=O)NCC(C)(C)CNC(=O)c2ccc(Nc3nc(NC4(c5ccc(Cl)cc5)CC4)nc(OCC(F)(F)F)n3)cc2)cc1 [Compound 1589]	0.01 to 10
O=C(NCCc1ccccn1)C(=O)NCC[C@H](NC(=O)c1ccc(Nc2nc(NC3(c4ccc(Cl)cc4)CC3)nc(OCC(F)(F)F)n2)cc1)C(=O)O [Compound 1326]	0.01 to 10
COC(=O)[C@H](CNC(=O)C(=O)NCc1ccc(F)c(F)c1)NC(=O)c1ccc(Nc2nc(NC3(c4ccc(Cl)cc4)CC3)nc(OCC(F)(F)F)n2)cc1 [Compound 1136]	0.01 to 10
NC(=O)C(=O)NCCC[C@H](NC(=O)c1ccc(Nc2nc(NC3(c4ccc(Cl)cc4)CC3)nc(OCC(F)(F)F)n2)cc1)C(=O)O [Compound 1016, (S)-5-(2-amino-2-oxoacetamido)-2-(4-(4-(1-(4-chlorophenyl)cyclopropylamino)-6-(2,2,2-trifluoroethoxy)-1,3,5-triazin-2-ylamino)benzamido)pentanoic acid]	0.01 to 10
CC(C)(CNC(=O)C(=O)Nc1ccc(-c2cccc(C(=O)O)c2)cc1)CNC(=O)c1ccc(Nc2nc(NC3(c4ccc(Cl)cc4)CC3)nc(OCC(F)(F)F)n2)cc1 [Compound 1543]	0.01 to 10
O=C(NCC[C@H](NC(=O)c1ccc(Nc2nc(NC3(c4ccc(Cl)cc4)CC3)nc(OCC(F)(F)F)n2)cc1)C(=O)O)C(=O)Nc1ccccn1 [Compound 1279]	0.01 to 10
CCOC(=O)[C@H](CCNC(=O)C(=O)N(C)C)NC(=O)c1ccc(Nc2nc(NC3(c4ccc(Cl)cc4)CC3)nc(OCC(F)(F)F)n2)cc1 [Compound 1026, (S)-ethyl 2-(4-(4-(1-(4-chlorophenyl)cyclopropylamino)-6-(2,2,2-trifluoroethoxy)-1,3,5-triazin-2-ylamino)benzamido)-4-(2-(dimethylamino)-2-oxoacetamido)butanoate]	0.01 to 10
COC(=O)[C@H](CNC(=O)C(=O)NCc1ccc(F)cc1)NC(=O)c1ccc(Nc2nc(NC3(c4ccc(Cl)cc4)CC3)nc(OCC(F)(F)F)n2)cc1 [Compound 1133]	0.01 to 10
CCOC(=O)[C@H](CNC(=O)C(=O)N(C)C)NC(=O)c1ccc(Nc2nc(NC3(c4ccc(Cl)cc4)CC3)nc(OCC(F)(F)F)n2)cc1 [Compound 1020, (S)-ethyl 2-(4-(4-(1-(4-chlorophenyl)cyclopropylamino)-6-(2,2,2-trifluoroethoxy)-1,3,5-triazin-2-ylamino)benzamido)-3-(2-(dimethylamino)-2-oxoacetamido)propanoate]	0.01 to 10

same assay, conditions: Hepatitis C virus, Huh-7, 48 h, read-out: Activity (EC50 class), HCV pseudoparticles, Huh7 cells, luciferase 2 days after infection; average of duplicates

Structure (SMILES)	EC50 [nM]
CC(C)(CNC(=O)C(=O)Nc1nc2ccc(Cl)cc2s1)CNC(=O)c1ccc(Nc2nc(NC3(c4ccc(Cl)cc4)CC3)nc(OCC(F)(F)F)n2)cc1 [Compound 3807]	0.01 to 10
O=C(NC[C@H](NC(=O)c1ccc(Nc2nc(NC3(c4ccc(Cl)cc4)CC3)nc(OCC(F)(F)F)n2)cc1)C(=O)O)C(=O)Nc1cccc(Oc2ccccc2)c1 [Compound 3750]	0.01 to 10
O=C(NCC[C@H](NC(=O)c1ccc(Nc2nc(NC3(c4ccc(Cl)cc4)CC3)nc(OCC(F)(F)F)n2)cc1)C(=O)O)C(=O)Nc1ccc(Oc2cccnc2)nc1 [Compound 3624]	0.01 to 10
CC(C)(CNC(=O)C(=O)Nc1nc2ccc(C(C)(O)O)cc2s1)CNC(=O)c1ccc(Nc2nc(NC3(c4ccc(Cl)cc4)CC3)nc(OCC(F)(F)F)n2)cc1 [Compound 3822]	0.01 to 10
COC(=O)[C@H](CNC(=O)C(=O)Nc1ccc(Oc2cccnc2)nc1)NC(=O)c1ccc(Nc2nc(NC3(c4ccc(Cl)cc4)CC3)nc(OCC(F)(F)F)n2)cc1 [Compound 3699]	0.01 to 10
Cc1nccc(-c2cccc(NC(=O)C(=O)NCC[C@H](NC(=O)c3ccc(Nc4nc(NC5(c6ccc(Cl)cc6)CC5)nc(OCC(F)(F)F)n4)cc3)C(=O)O)c2)n1 [Compound 3625]	0.01 to 10

same assay, conditions: Hepatitis C virus, Huh-7, read-out: Activity (EC50 class), HCV pseudoparticles (genotype 1a, H77C) in Huh7 cells; EC50 expressed as class A/B

Structure (SMILES)	EC50 [nM]
COC(=O)[C@H](CNC(=O)C(=O)Nc1ccc(-c2ccncc2)cc1)NC(=O)c1ccc(Nc2nc(NC3(c4ccc(Cl)cc4)CC3)nc(OCC(F)(F)F)n2)cc1 [Compound 3181]	0.01 to 10
CC(CNC(=O)C(=O)Nc1ccc(F)cc1F)CNC(=O)c1ccc(Nc2nc(NC3(c4ccc(Cl)cc4)CC3)nc(OCC(F)(F)F)n2)cc1 (stereo not shown) [Compound 3473]	0.01 to 10
COC(=O)[C@H](CCNC(=O)C(=O)Nc1ccc(-c2ccccc2C)cc1)NC(=O)c1ccc(Nc2nc(NC3(c4ccc(Cl)cc4)CC3)nc(OCC(F)(F)F)n2)cc1 [Compound 3304]	0.01 to 10
O=C(NC[C@H](NC(=O)c1ccc(Nc2nc(NC3(c4ccc(Cl)cc4)CC3)nc(OCC(F)(F)F)n2)cc1)C(=O)O)C(=O)Nc1ccc(-n2cnnn2)cc1 [Compound 3276]	0.01 to 10
CC(C)OC(=O)c1ccc(NC(=O)C(=O)NCC(C)(C)CNC(=O)c2ccc(Nc3nc(NC4(c5ccc(Cl)cc5)CC4)nc(OCC(F)(F)F)n3)cc2)cc1 [Compound 3259]	0.01 to 10
CC(C)(CNC(=O)C(=O)Nc1ccc(F)c(Cl)c1)CNC(=O)c1ccc(Nc2nc(NC3(c4ccc(Cl)cc4)CC3)nc(OCC(F)(F)F)n2)cc1 [Compound 3059]	0.01 to 10
COC(=O)[C@H](CNC(=O)C(=O)Nc1ccc(Cc2ccncc2)cc1)NC(=O)c1ccc(Nc2nc(NC3(c4ccc(Cl)cc4)CC3)nc(OCC(F)(F)F)n2)cc1 [Compound 3094]	0.01 to 10
COC(=O)[C@H](CCNC(=O)C(=O)Nc1ccc(-n2cnnn2)cc1)NC(=O)c1ccc(Nc2nc(NC3(c4ccc(Cl)cc4)CC3)nc(OCC(F)(F)F)n2)cc1 [Compound 3308]	0.01 to 10
CN(CCCNC(=O)c1ccc(Nc2nc(NC3(c4ccc(Cl)cc4)CC3)nc(OCC(F)(F)F)n2)cc1)C(=O)C(=O)Nc1ccc(F)cc1F [Compound 3449]	0.01 to 10
COC(=O)[C@H](CNC(=O)C(=O)Nc1ccc(-c2nncn2C)cc1)NC(=O)c1ccc(Nc2nc(NC3(c4ccc(Cl)cc4)CC3)nc(OCC(F)(F)F)n2)cc1 [Compound 3200]	0.01 to 10
Cn1nccc1NC(=O)C(=O)NCC(C)(C)CNC(=O)c1ccc(Nc2nc(NC3(c4ccc(Cl)cc4)CC3)nc(OCC(F)(F)F)n2)cc1 [Compound 3036]	0.01 to 10
O=C(NCC[C@H](NC(=O)c1ccc(Nc2nc(NC3(c4ccc(Cl)cc4)CC3)nc(OCC(F)(F)F)n2)cc1)C(=O)O)C(=O)Nc1ccc(C(O)N2CCOCC2)cc1 (stereo partly shown) [Compound 3229]	10 to 1000
NC(=O)NCc1ccc(NC(=O)C(=O)NCCC(NC(=O)c2ccc(Nc3nc(NC4(c5ccc(Cl)cc5)CC4)nc(OCC(F)(F)F)n3)cc2)C(=O)O)cc1 (stereo not shown) [Compound 3535]	0.01 to 10
Cn1ccc(NC(=O)C(=O)NCC(C)(C)CNC(=O)c2ccc(Nc3nc(NC4(c5ccc(Cl)cc5)CC4)nc(OCC(F)(F)F)n3)cc2F)n1 [Compound 3567]	0.01 to 10
CC(C)(CNC(=O)C(=O)Nc1ccccc1-n1cnnn1)CNC(=O)c1ccc(Nc2nc(NC3(c4ccc(Cl)cc4)CC3)nc(OCC(F)(F)F)n2)cc1 [Compound 3046]	0.01 to 10
CC(C)(CNC(=O)C(=O)Nc1ccc(OC(F)(F)F)cc1)CNC(=O)c1ccc(Nc2nc(NC3(c4ccc(Cl)cc4)CC3)nc(OCC(F)(F)F)n2)cc1F [Compound 3559]	0.01 to 10
CC(C)(CNC(=O)C(=O)Nc1ccccc1N1CCCCC1)CNC(=O)c1ccc(Nc2nc(NC3(c4ccc(Cl)cc4)CC3)nc(OCC(F)(F)F)n2)cc1 [Compound 3016]	0.01 to 10

From US8916702B2 (priority 2012, dated 2014)
